O=C1CCCC(=O)O1
Details	solubility (mole fraction)
in acetic acid, 279.65 K	0.0783
in acetic acid, 282.25 K	0.0967
in acetic acid, 284.55 K	0.119
in acetic acid, 287.05 K	0.152
in acetic acid, 289.55 K	0.183
in acetic acid, 291.95 K	0.223
in acetic acid, 294.25 K	0.27
in acetic acid, 296.65 K	0.323
in acetic acid, 299.15 K	0.376
in acetic acid, 302.15 K	0.436
in acetic acid, 304.05 K	0.502
in acetic acid, 306.25 K	0.557
in acetyl acetate, 278.45 K	0.153
in acetyl acetate, 282.45 K	0.205
in acetyl acetate, 283.85 K	0.231
in acetyl acetate, 285.45 K	0.259
in acetyl acetate, 287.65 K	0.299
in acetyl acetate, 290.55 K	0.342
in acetyl acetate, 293.05 K	0.388
in acetyl acetate, 296.95 K	0.437
in acetyl acetate, 300.25 K	0.502
in acetyl acetate, 304.05 K	0.562
in tetrachloromethane, 282.25 K	0.00064
in tetrachloromethane, 285.45 K	0.00073
in tetrachloromethane, 288.05 K	0.00097
in tetrachloromethane, 291.15 K	0.00141
in tetrachloromethane, 293.95 K	0.00182
in tetrachloromethane, 295.95 K	0.00225
in tetrachloromethane, 300.25 K	0.00268
in tetrachloromethane, 303.25 K	0.00321
in tetrachloromethane, 306.25 K	0.0039
in tetrachloromethane, 309.85 K	0.00487
in tetrachloromethane, 312.95 K	0.00544
in tetrachloromethane, 315.55 K	0.00586
in tetrachloromethane, 318.25 K	0.00619
in tetrachloromethane, 320.45 K	0.00639

From BigSolDB 2.1
